The values that follow come from ChEMBL document CHEMBL1128609, “Chemical synthesis and biological evaluation of 1d-1,2,4,5-InsP4 and its 3-fluorinated counterpart 1d-3-F-1,2,4,5-InsP4 potent 1d-1,4,5-InsP3-like calcium mobilizing analogues” (Bioorg Med Chem Lett, 1995).

A short description of assay [1]: Inhibitory concentration required to displace [3H]insP3 from Inositol 1,4,5-trisphosphate receptor of bovine adrenal cortex membranes. It counts as tissue-based.
The nature of assay [2]: Effective concentration required for Calcium release via the intracellular InsP3 receptor of SH-SY5Y cells. It counts as functional, cell-based. The note with it: Homo sapiens.

As usually defined, the IC50 is the concentration that inhibits the measured activity by half. A lower IC50 goes with greater potency. As usually defined, the EC50 is the concentration giving half of the maximal effect.

In the case of `O=P(O)(O)O[C@@H]1[C@H](O)[C@H](O)[C@@H](OP(=O)(O)O)[C@H](OP(=O)(O)O)[C@H]1O` [INS(1,4,5)P3], the half-inhibitory concentration (IC50) in assay [1] is 5.5 nM. In assay [2], the EC50 was 51.6 nM.
Taken in the same sequence, the figures for `O=P(O)(O)OC1C(O)C(OP(=O)(O)O)C(OP(=O)(O)O)C(F)C1OP(=O)(O)O` (stereo unspecified) were 9.7 nM and 100 nM.
Taken in the same sequence, the figures for `O=P(O)(O)OC1C(O)C(O)C(OP(=O)(O)O)C(OP(=O)(O)O)C1F` (stereo unspecified) were 269 nM and 5420 nM.
